| SMILES | melting point [°C] |
| --- | --- |
| O=C(CCc1oc(-n2cnc3ccccc32)nc1-c1ccc(Cl)cc1)NCc1ccc(-c2ccccc2)cc1 [Example 153, 3-[2-(1H-benzimidazol-1-yl)-4-(4-chlorophenyl)-5-oxazolyl]-N-(4-phenylbenzyl)propionamide] | 214 to 216 |
| O=C(CCc1oc(-n2cnc3ccccc32)nc1-c1ccc(Cl)cc1)NCC(=O)Nc1ccccc1 [Example 149, 2-({3-[2-(1H-benzimidazol-1-yl)-4-(4-chlorophenyl)-5-oxazolyl]propanoyl}amino)-N-phenylacetamide] | 250 to 251 |
| CCOP(=O)(Cc1ccc(NC(=O)CCc2sc(NC(=O)NCc3ccccc3)nc2-c2ccc(Cl)cc2)cc1)OCC | 144 to 145 |
| O=C(CCCc1sc(-n2cnc3ccccc32)nc1-c1ccc(Cl)cc1)NCc1cc(Br)ccc1F [Example 216, 4-[2-(1H-benzimidazol-1-yl)-4-(4-chlorophenyl)-5-thiazolyl]-N-(5-bromo-2-fluorobenzyl)butanamide] | 160 to 161 |
| COc1ccc(-c2nc(-c3ccc(Cl)cc3)c(CCC(N)=O)o2)cc1 [Example 28, 3-[4-(4-chlorophenyl)-2-(4-methoxyphenyl)-5-oxazolyl]propionamide] | 215 to 216 |
| O=C(CCc1oc(-n2cnc3ccccc32)nc1-c1ccc(Cl)cc1)NCc1ccc(Cl)c(Cl)c1 [Example 147, 3-[2-(1H-benzimidazol-1-yl)-4-(4-chlorophenyl)-5-oxazolyl]-N-(3,4-dichlorobenzyl)propionamide] | 190 to 191 |
| COc1cc(OC)c(CNC(=O)CCc2oc(-n3cnc4ccccc43)nc2-c2ccc(Cl)cc2)c(OC)c1 [Example 161, 3-[2-(1H-benzimidazol-1-yl)-4-(4-chlorophenyl)-5-oxazolyl]-N-(2,4,6-trimethoxybenzyl)propionamide] | 206 to 208 |
| CCOP(=O)(Cc1ccc(NC(=O)CCc2oc(Sc3ccccn3)nc2-c2ccc(Cl)cc2)cc1)OCC | 146 to 147 |
| CCOP(=O)(Cc1ccc(NC(=O)CCc2oc(-c3ccc4ccccc4c3)nc2-c2ccc(Cl)cc2)cc1)OCC | 191 to 192 |
| CCOP(=O)(Cc1ccc(NC(=O)CCc2sc(-n3cnc4ccccc43)nc2C(C)(C)C)cc1)OCC | 155 to 156 |
| COc1ccc(-c2nc(-n3cnc4ccccc43)oc2CCC(=O)N2CCN(CC3CCCN(C)C3)CC2)cc1 (stereo not drawn) [Example 252, 1-{3-[2-(1H-benzoimidazol-1-yl)-4-(4-methoxyphenyl)-5-oxazolyl]propanoyl}-4-[(1-methylpiperidin-3-yl)methyl]piperazine] | 151 to 152 |
| CN(Cc1ccc(NC(=O)CCc2oc(-n3cnc4ccccc43)nc2-c2ccc(Cl)cc2)cc1)C1CCOCC1 [Example 87, 3-[2-(1H-benzimidazol-1-yl)-4-(4-chlorophenyl)-5-oxazolyl)-N-(4-{[N-methyl-N-(4-tetrahydropyranyl)amino]methyl}phenyl)propionamide] | 182 to 184 |
| COc1cc(CNC(=O)CCc2oc(-n3cnc4ccccc43)nc2-c2ccc(Cl)cc2)cc(OC)c1 [Example 180, 3-[2-(1H-benzimidazol-1-yl)-4-(4-chlorophenyl)-5-oxazolyl]-N-(3,5-dimethoxybenzyl)propionamide] | 198 to 200 |
| COc1cc(NC(=O)CCc2oc(-n3cnc4ccccc43)nc2-c2ccc(Cl)cc2)cc(OC)c1OC [Example 127, 3-[2-(1H-benzimidazol-1-yl)-4-(4-chlorophenyl)-5-oxazolyl]-N-(3,4,5-trimethoxyphenyl)propionamide] | 228 to 229 |
| COC(=O)Cc1csc(NC(=O)CCc2oc(-n3cnc4ccccc43)nc2-c2ccc(Cl)cc2)n1 [Example 129, 3-[2-(1H-benzimidazol-1-yl)-4-(4-chlorophenyl)-5-oxazolyl]-N-{4-[(methoxycarbonyl)methyl]-2-thiazolyl}propionamide] | 233 to 234 |
| O=C(CCc1oc(-n2cnc3ccccc32)nc1-c1ccc(Cl)cc1)NCc1cc(F)ccc1F [Example 158, 3-[2-(1H-benzimidazol-1-yl)-4-(4-chlorophenyl)-5-oxazolyl]-N-(2,5-difluorobenzyl)propionamide] | 197 to 198 |
| CCOP(=O)(Cc1ccc(NC(=O)CCc2sc(NS(=O)(=O)c3ccccc3)nc2-c2ccc(Cl)cc2)cc1)OCC | 213 to 214 |
| O=C(CCc1oc(-n2cnc3ccccc32)nc1-c1ccc(Cl)cc1)NCc1ccc(F)cc1Cl [Example 168, 3-[2-(1H-benzimidazol-1-yl)-4-(4-chlorophenyl)-5-oxazolyl]-N-(2-chloro-4-fluorobenzyl)propionamide] | 196 to 198 |
| CCOP(=O)(Cc1ccc(NC(=O)CCc2oc(-n3nnc4ccccc43)nc2-c2ccc(Cl)cc2)cc1)OCC | 91 to 92 |
| O=C(CCc1oc(-n2cnc3ccccc32)nc1-c1ccc(Cl)cc1)NCc1cc(F)cc(F)c1 [Example 164, 3-[2-(1H-benzimidazol-1-yl)-4-(4-chlorophenyl)-5-oxazolyl]-N-(3,5-difluorobenzyl)propionamide] | 155 to 156 |
| O=C(CCc1sc(-n2cnc3ccccc32)nc1-c1ccc(Cl)cc1)NCc1cc(Br)ccc1F [Example 202, 3-[2-(1H-benzimidazol-1-yl)-4-(4-chlorophenyl)-5-thiazolyl]-N-(5-bromo-2-fluorobenzyl)propionamide] | 188 to 189 |

| SMILES | melting point [°C] |
| --- | --- |
| O=C(CCc1oc(-n2cnc3ccccc32)nc1-c1ccc(Cl)cc1)NCc1cc(Cl)ccc1Cl [Example 174, 3-[2-(1H-benzimidazol-1-yl)-4-(4-chlorophenyl)-5-oxazolyl]-N-(2,5-dichlorobenzyl)propionamide] | 205 to 207 |
| CCOP(=O)(Cc1cccc(NC(=O)CCCc2oc(-n3cnc4ccccc43)nc2-c2ccc(Cl)cc2)c1)OCC | 135 to 136 |
| CCOP(=O)(Cc1ccc(NC(=O)CCc2oc(-n3cnc4ccccc43)nc2-c2ccc(OC)cc2)cc1)OCC | 143 to 144 |
| N#CCc1ccc(NC(=O)CCCCc2sc(-n3cnc4ccccc43)nc2-c2ccc(Cl)cc2)cc1 [Example 223, 5-[2-(1H-benzimidazol-1-yl)-4-(4-chlorophenyl)-5-thiazolyl]-N-[4-(cyanomethyl)phenyl]pentanamide] | 187 to 188 |
| Cc1nc(-c2ccc(Cl)cc2)c(CCC(=O)N2CCS(=O)(=O)CC2)o1 [Example 241, 4-{3-[4-(4-chlorophenyl)-2-methyl-5-oxazolyl]propanoyl}thiomorpholine-1,1-dioxide] | 124 to 125 |
| O=C(CCc1oc(-n2cnc3ccccc32)nc1-c1ccc(Cl)cc1)NCc1ccc(F)cc1F [Example 160, 3-[2-(1H-benzimidazol-1-yl)-4-(4-chlorophenyl)-5-oxazolyl]-N-(2,4-difluorobenzyl)propionamide] | 190 to 191 |
| Nc1nc(-c2ccc(Cl)cc2)c(CCC(=O)N2CCS(=O)(=O)CC2)s1 [Example 227B, 4-{3-[2-amino-4-(4-chlorophenyl)-5-thiazolyl]propanoyl}thiomorpholine-1,1-dioxide] | 220 to 222 |
| CNC(=O)Cc1ccc(NC(=O)CCc2oc(-n3cnc4ccccc43)nc2-c2ccc(Cl)cc2)cc1 [Example 143, 2-[4-({3-[2-(1H-benzimidazol-1-yl)-4-(4-chlorophenyl)-5-oxazolyl]propanoyl}amino)phenyl]-N-methylacetamide] | 219 to 221 |
| CCOP(=O)(Cc1ccc(NC(=O)/C=C/c2sc(-n3cnc4ccccc43)nc2-c2ccccc2)cc1)OCC | 229 to 230 |
| CCOP(=O)(Cc1ccc(NC(=O)CCCc2oc(-c3ccccc3)nc2-c2ccc(Cl)cc2)cc1)OCC | 152 to 153 |
| Cc1ccc(Cl)cc1CNC(=O)CCc1oc(-n2cnc3ccccc32)nc1-c1ccc(Cl)cc1 [Example 176, 3-[2-(1H-benzimidazol-1-yl)-4-(4-chlorophenyl)-5-oxazolyl]-N-(5-chloro-2-methylbenzyl)propionamide] | 217 to 219 |
| O=C(CCc1oc(-n2cnc3ccccc32)nc1-c1ccc(Cl)cc1)N1CCN(c2ccccn2)CC1 [Example 93, 1-{3-[2-(1H-benzimidazol-1-yl)-4-(4-chlorophenyl)-5-oxazolyl]propanoyl}-4-(2-pyridinyl)piperazine] | 174 to 176 |
| CCOP(=O)(Cc1ccc(NC(=O)CCc2ocnc2-c2ccc(Cl)cc2)cc1)OCC | 130 to 131 |
| N#Cc1ccccc1NC(=O)CCc1oc(-n2cnc3ccccc32)nc1-c1ccc(Cl)cc1 [Example 113, 3-[2-(1H-benzimidazol-1-yl)-4-(4-chlorophenyl)-5-oxazolyl]-N-(2-cyanophenyl)propionamide] | 186 to 187 |
| O=C(CCc1oc(-n2cnc3ccccc32)nc1-c1ccc(Cl)cc1)N1CCS(=O)(=O)CC1 [Example 194, 4-{3-[2-(1H-benzimidazol-1-yl)-4-(4-chlorophenyl)-5-oxazolyl]propanoyl}thiomorpholine-1,1-dioxide] | 227 to 228 |
| CCOP(=O)(Cc1ccc(NC(=O)/C=C/c2sc(-n3cnc4ccccc43)nc2C(C)C)cc1)OCC | 198 to 199 |
| O=C(CCc1oc(-n2cnc3ccccc32)nc1-c1ccc(Cl)cc1)NCc1ccc(Cl)cc1 [Example 152, 3-[2-(1H-benzimidazol-1-yl)-4-(4-chlorophenyl)-5-oxazolyl]-N-(4-chlorobenzyl)propionamide] | 190 to 191 |
| O=C(CCc1oc(-n2cnc3ccccc32)nc1-c1ccc(Cl)cc1)NCc1ccncc1 [Example 155, 3-[2-(1H-benzimidazol-1-yl)-4-(4-chlorophenyl)-5-oxazolyl]-N-(4-pyridinylmethyl)propionamide] | 214 to 216 |
| NS(=O)(=O)c1ccc(CNC(=O)CCc2oc(-c3ccccc3)nc2-c2ccc(Cl)cc2)cc1 [Example 165, N-[4-(aminosulfonyl)benzyl]-3-[4-(4-chlorophenyl)-2-phenyl-5-oxazolyl]propionamide] | 225 to 227 |
| CCOP(=O)(Cc1ccc(NC(=O)/C=C/c2oc(-c3ccccc3)nc2-c2ccc(Cl)cc2)cc1)OCC | 204 to 206 |
| NC(=O)CCc1oc(-c2ccc3ccccc3c2)nc1-c1ccc(Cl)cc1 [Example 24, 3-[4-(4-chlorophenyl)-2-(2-naphthyl)-5-oxazolyl]propionamide] | 206 to 207 |

Source: patent US7183276B2, “Azole compounds” (Takeda Pharmaceutical Company Limited, priority 2002, dated 2007)
